Tests used:
SJL/PLJ mice = experiment: Experimental allergic encephalomyelitis (EAE) induced by MBP immunization; type: in vivo, mouse
Procedure: The studies were performed according to standard methods. See, e.g., Hooper et al., Proc Natl Acad Sci U S A 95:675-680, 1998. Briefly, EAE was caused by immunization of 8-10 week old female SJL/PLJ mice with MBP (in complete Freund's adjuvant containing 0.05% M Butyricum plus an additional 4 mg/ml Mycobacterium Tuberculosis H37 RA, one […] subcutaneous dose plus 2 doses of 400 ng pertussis toxin, intra-peritoneal, on days 0 and 2). The grading system shown in Table 5 was used to evaluate the severity of the disease.

TNF-α = experiment: LPS-stimulated J774 macrophages: TNF-α production; type: cell-based
Description: (§1) In in vitro studies, J774 macrophages were exposed to bacterial lipopolysaccharide (LPS), to induce pro-inflammatory mediator production and cytotoxicity. […] This assay (the LPS-stimulated macrophage) represents an in vitro model of an inflammatory situation. Agents that block inflammatory mediator production in this assay are expected to have anti-inflammatory or immunosuppressive effects in inflammatory or immune diseases.
(§2) The half-maximal inhibitory effect (in μM) of various PJ compounds was assessed under a variety of conditions in immunostimulated J774 macrophages and in peroxynitrite-stimulated thymocytes. Macrophages or thymocytes were first treated with a chosen PJ compound for 30 min at a concentration ranging from 0.1 to 30 μM. The cells were then immunostimulated with LPS (10 μg/ml) or treated with peroxynitrite (30 μM). MIP production in the macrophages was measured at 3 h, TNF and nitric oxide were measured at 24 h, cell viability in the macrophages were measured at 24 h. PARS activation and cell death in thymocytes were measured at 6 h. Measurements of mediator production, PARS activation and cell death were essentially as described in Németh, et al., Eur J Pharmacol 339:215-221, 1997 and Virág and Szabó, Br J Pharmacol, 126: 769-777, 1999. Results in Table 2 are shown as EC50 values (half maximal inhibition of mediator production or restoration of cell viability; in μM): [mean±SEM of n=3-6 determinations].

MIP-1α = experiment: LPS-stimulated J774 macrophages: MIP-1α production; type: cell-based
Description: as §1, §2

[1] = system: thoracic aortic rings from wild-type mice; experiment: High glucose induced endothelial dysfunction in isolated thoracic aortic rings; parameters: species or system mouse; settings: 30 mM glucose 16 hours; co-incubation with PJ34 1 μM
Procedure: Breeding pairs of mice for the PARS colony were a gift from Dr. Z. Q. Wang, International Agency for Research on Cancer Lyon, France. Thoracic aortae from PARS^−/− and PARS^+/+ mice (Wang et al., Genes Dev.9: 509-520, 1995) were harvested, cleared of periadvential fat, and cut into 3 or 4 pieces. […] Four different media preparations were used: a) normal glucose, i.e. 5 mM: in F-12K Nutrient Mixture medium (Gibco BRL—Life Technologies); b) Osmotic control, i.e. 30 mM L-glucose in F-12K medium; c) High glucose i.e. 30 mM D-glucose in F-12K medium; […].
After incubation, aortic rings were mounted in organ baths filled with warmed and gas equilibrated Krebs' solution and endothelium dependent relaxant ability was evaluated as described above.

thymocytes = experiment: Peroxynitrite-stimulated thymocytes: cell viability; type: cell-based
Procedure: as §2

mouse = experiment: Ischemic and reperfused gut (superior mesenteric artery occlusion); settings: gut ischemia-reperfusion; 38% mortality without treatment
Description: In another model, a mouse model of ischemic and reperfused gut was utilized.

Balb/c mice = experiment: LPS-induced mortality (systemic inflammatory model); settings: LPS 90 mg/kg intraperitoneally; pretreatment 20 mg/kg; over 24 h; 92% death without treatment
Procedure: In order to substantiate the efficacy of the PJ series of compounds in inflammatory conditions, the effect of compounds according to the invention were tested in a systemic inflammatory model induced by bacterial lipopolysaccharide.

[2] = 10 mg/kg orally 2 times daily from day 10
[3] = J774 macrophages exposed to LPS

SMILES: CN(C)CC(=O)Nc1ccc2[nH]c(=O)c3ccccc3c2c1 [PJ34, N-(6-oxo-5,6-dihydro-phenanthridin-2-yl)-N,N-dimethylacetamide]
- mortality in EAE (in words) (SJL/PLJ mice; [2]): significant reduction
- severity of EAE (in words) (SJL/PLJ mice; [2]): significant reduction
- Percent mortality (SJL/PLJ mice; Day 10 after immunization, 10 mg/kg orally 2 times daily from day 10): 0%
- Average Disease severity index (SJL/PLJ mice; Day 10 after immunization, 10 mg/kg orally 2 times daily from day 10, grading Table 5): 0
- Average Disease severity index (SJL/PLJ mice; Day 11): 0
- Percent mortality (SJL/PLJ mice; Day 11): 0%
- Average Disease severity index (SJL/PLJ mice; Day 12): 0
- Percent mortality (SJL/PLJ mice; Day 12): 0%
- Average Disease severity index (SJL/PLJ mice; Day 13): 0
- Percent mortality (SJL/PLJ mice; Day 13): 0%
- Average Disease severity index (SJL/PLJ mice; Day 14): 0
- Percent mortality (SJL/PLJ mice; Day 14): 0%
- Average Disease severity index (SJL/PLJ mice; Day 15): 0
- Percent mortality (SJL/PLJ mice; Day 15): 0%
- Average Disease severity index (SJL/PLJ mice; Day 16): 4
- Percent mortality (SJL/PLJ mice; Day 16): 0%
- Average Disease severity index (SJL/PLJ mice; Day 17): 4
- Percent mortality (SJL/PLJ mice; Day 17): 0%
- Average Disease severity index (SJL/PLJ mice; Day 18): 4
- Percent mortality (SJL/PLJ mice; Day 18): 0%
- Average Disease severity index (SJL/PLJ mice; Day 19): 4
- Percent mortality (SJL/PLJ mice; Day 19): 0%
- Average Disease severity index (SJL/PLJ mice; Day 20): 3
- Percent mortality (SJL/PLJ mice; Day 20): 0%
- production of the pro-inflammatory cytokine TNF-α (in words) (TNF-α; [3]): inhibited
- EC50 (TNF-α; Mus musculus, J774, LPS 10 μg/ml, 30 min pretreatment 0.1 to 30 μM, measured at 24 h, mean±SEM n=3-6, read-out: Inhibition of TNF-α (J774)): 5.4 ± 0.6 µM
- production of the chemokine MIP-1α (in words) (MIP-1α; [3]): inhibited
- EC50 (MIP-1α; Mus musculus, J774, LPS 10 μg/ml, 30 min pretreatment 0.1 to 30 μM, measured at 3 h, mean±SEM n=3-6, read-out: Inhibition of MIP-1α (J774)): 10.2 ± 1.4 µM
- impairment in endothelium-dependent relaxation by high glucose [1]: prevented
- EC50 (thymocytes; Thymocyte, peroxynitrite 30 μM, 30 min pretreatment 0.1 to 30 μM, measured at 6 h, mean±SEM n=3-6, read-out: Enhancement of cell viability (thymocyte)): 0.2 ± 0.1 µM
- oxidant-induced suppression of the viability of the cells (in words) (thymocytes; isolated thymocytes exposed to peroxynitrite or hydrogen peroxide): prevented
- survival (mouse): 100%
- endotoxin-induced mortality (Balb/c mice): 50%

From patent US6531464B1, “Methods for the treatment of neurodegenerative disorders using substituted phenanthridinone derivatives” (Inotek Pharmaceutical Corporation, priority 1999, dated 2003)
